Data reported in patent US4472320A (priority 1981, dated 1984).
Structures can show the parent of a compound that is named as a salt.

What was measured:
[1] = target: AChE, eel (acetylcholinesterase, EC 3.1.1.7) (Electrophorus electricus, UniProt O42275); type: biochemical, electric eel
[2] = target: BuChE, horse (butyrylcholinesterase, EC 3.1.1.8) (Equus caballus, UniProt P81908); type: biochemical
guinea pigs = conditions: guinea pig, in vivo; cited from earlier work

Chain of AChE, eel (acetylcholinesterase, EC 3.1.1.7) (O42275 24-633): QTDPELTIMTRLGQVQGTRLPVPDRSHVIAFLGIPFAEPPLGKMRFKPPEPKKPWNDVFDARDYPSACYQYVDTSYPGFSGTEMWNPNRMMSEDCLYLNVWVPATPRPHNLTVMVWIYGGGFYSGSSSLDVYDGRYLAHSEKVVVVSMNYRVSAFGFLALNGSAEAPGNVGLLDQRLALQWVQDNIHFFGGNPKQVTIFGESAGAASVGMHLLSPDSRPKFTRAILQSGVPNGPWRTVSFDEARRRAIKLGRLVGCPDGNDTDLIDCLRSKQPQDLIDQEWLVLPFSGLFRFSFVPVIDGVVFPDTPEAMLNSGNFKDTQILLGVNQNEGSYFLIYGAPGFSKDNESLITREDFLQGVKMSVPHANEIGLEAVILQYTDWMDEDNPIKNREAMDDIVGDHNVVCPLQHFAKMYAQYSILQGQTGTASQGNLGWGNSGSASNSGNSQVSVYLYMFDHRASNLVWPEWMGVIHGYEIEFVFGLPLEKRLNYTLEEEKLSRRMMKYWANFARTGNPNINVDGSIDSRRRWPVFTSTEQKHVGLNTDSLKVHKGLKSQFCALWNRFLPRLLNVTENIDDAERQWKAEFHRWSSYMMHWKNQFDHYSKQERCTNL
Chain of BuChE, horse (butyrylcholinesterase, EC 3.1.1.8) (P81908 whole entry): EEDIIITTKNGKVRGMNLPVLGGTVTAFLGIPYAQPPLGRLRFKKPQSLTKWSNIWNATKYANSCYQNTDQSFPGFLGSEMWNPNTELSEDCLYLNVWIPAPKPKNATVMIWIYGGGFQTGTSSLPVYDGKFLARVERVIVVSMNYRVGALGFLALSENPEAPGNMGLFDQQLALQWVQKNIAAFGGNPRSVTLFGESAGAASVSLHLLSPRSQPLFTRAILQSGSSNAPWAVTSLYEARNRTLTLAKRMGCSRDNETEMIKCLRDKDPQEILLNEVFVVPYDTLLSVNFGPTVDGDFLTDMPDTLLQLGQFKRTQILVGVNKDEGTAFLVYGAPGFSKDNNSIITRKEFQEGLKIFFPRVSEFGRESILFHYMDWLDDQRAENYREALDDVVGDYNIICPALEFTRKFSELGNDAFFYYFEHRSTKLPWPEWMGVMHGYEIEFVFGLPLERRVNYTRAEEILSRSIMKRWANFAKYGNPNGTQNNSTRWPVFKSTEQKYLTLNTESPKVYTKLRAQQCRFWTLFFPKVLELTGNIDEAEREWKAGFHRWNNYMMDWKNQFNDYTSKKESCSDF

SMILES	effect of oxime on spontaneous reactivation of TDPI-inhibited AChE [1]	effect of oxime on reactivation of TDPI-inhibited BuChE [2]	maximum dosage which does not result in side-effects (guinea pigs)
C[n+]1ccccc1C=NO.[I-] [2-PAM, 2-hydroximinomethyl-1-methylpyridinium iodide]	accelerated significantly the spontaneous reactivation	enhanced the reactivation of horse serum BuChE	–
C[n+]1cccc(C=NO)c1 [3-PAM]	did not enhance the regeneration of enzyme activity	–	–
CNC(=O)Oc1ccc2c(c1)[C@]1(C)CCN(C)[C@@H]1N2C [physostigmine sulfate]	–	–	0.1 mg/kg
CN(C)C(=O)Oc1ccc[n+](C)c1 [pyridostigmine iodide]	–	–	0.1 mg/kg
